Laboratory results from ChEMBL document CHEMBL5321277, “Discovery and Mechanism Study of SARS-CoV-2 3C-like Protease Inhibitors with a New Reactive Group” (J Med Chem, 2023).

How the values were obtained:
[1] = target: T1, Replicase polyprotein 1ab (Severe acute respiratory syndrome coronavirus 2, UniProt P0DTD1); experiment: Inhibition of N-terminal His6-tagged recombinant full length SARS-CoV-2 3CLpro expressed in Escherichia coli BL21(DE3) using MCA-AVLQSGFR-Lys(Dnp)-Lys-NH2 as fluorogenic substrate preincubated with compound for 10 mins followed by substrate addition by FRET assay
[2] = target: T1, Replicase polyprotein 1ab; experiment: Inhibition of SARS-CoV-2 PLpro using RLRGG-AMC as fluorogenic substrate preincubated with compound for 30 mins followed by substrate addition by fluorescence based microplate reader assay
Chymotrypsin = Chymotrypsin (Homo sapiens, UniProt Q99895+P17538+P40313+Q6GPI1); experiment: Inhibition of Chymotrypsin (unknown origin) using N-succinyl-AAPF-AMC as fluorogenic substrate preincubated for 10 mins followed by substrate addition and measured for 10 mins by fluorescence based assay; assay type: protein assay
Cathepsin B = Cathepsin B (Homo sapiens, UniProt P07858); experiment: Inhibition of Cathepsin B (unknown origin) using Z-RR-AMC as fluorogenic substrate preincubated for 10 mins followed by substrate addition and measured for 10 mins by fluorescence based assay
Cathepsin G = target: T2, Cathepsin G (Homo sapiens, UniProt P08311); experiment: Inhibition of Cathepsin G (unknown origin) measured for 1 to 2 hrs by fluorescence based assay
T2 sequence (P08311 whole entry): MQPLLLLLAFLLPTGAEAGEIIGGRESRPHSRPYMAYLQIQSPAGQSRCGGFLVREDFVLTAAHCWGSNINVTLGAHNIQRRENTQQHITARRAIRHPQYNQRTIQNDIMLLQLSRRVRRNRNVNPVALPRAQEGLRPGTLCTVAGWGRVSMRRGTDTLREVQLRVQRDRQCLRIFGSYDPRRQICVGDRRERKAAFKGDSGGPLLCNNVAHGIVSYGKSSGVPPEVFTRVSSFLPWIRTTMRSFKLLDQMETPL

Procathepsin L [3] = target: T3, Procathepsin L (Homo sapiens, UniProt P07711); experiment: Inhibition of Cathepsin L (unknown origin) using Z-VVR-AMC as fluorogenic substrate at 20 uM preincubated for 10 mins followed by substrate addition and measured for 10 mins by fluorescence based assay; details: time 20.0 min
Target sequence in this assay (P07711 114-333 limits assumed): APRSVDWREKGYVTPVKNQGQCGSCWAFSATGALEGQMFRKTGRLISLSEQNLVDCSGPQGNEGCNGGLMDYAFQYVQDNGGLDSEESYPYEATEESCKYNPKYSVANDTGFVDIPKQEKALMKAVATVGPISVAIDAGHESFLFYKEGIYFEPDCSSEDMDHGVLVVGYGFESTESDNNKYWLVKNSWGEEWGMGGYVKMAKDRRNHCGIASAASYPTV

Caspase-6 = target: T4, Caspase-6 (Homo sapiens, UniProt P55212); experiment: Inhibition of Caspase-6 (unknown origin)
T4 sequence (P55212 whole entry): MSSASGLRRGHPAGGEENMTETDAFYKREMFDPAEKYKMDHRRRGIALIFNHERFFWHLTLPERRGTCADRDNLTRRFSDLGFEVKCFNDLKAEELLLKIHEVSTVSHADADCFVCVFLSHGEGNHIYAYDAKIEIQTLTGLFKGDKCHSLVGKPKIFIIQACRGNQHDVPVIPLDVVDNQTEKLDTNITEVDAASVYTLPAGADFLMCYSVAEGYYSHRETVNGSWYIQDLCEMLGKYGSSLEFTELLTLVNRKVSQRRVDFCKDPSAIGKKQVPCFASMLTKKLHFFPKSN

[4] = target: T1, Replicase polyprotein 1ab; experiment: Inhibition of N-terminal His6-tagged recombinant full length SARS-CoV-2 3CLpro expressed in Escherichia coli BL21(DE3) assessed as inhibition constant using MCA-AVLQSGFR-Lys(Dnp)-Lys-NH2 as fluorogenic substrate incubated for 3 hrs by FRET assay
[5] = target: Replicase polyprotein 1ab (Severe acute respiratory syndrome coronavirus 2) (UniProt P0DTD1); experiment: Inhibition of N-terminal His6-tagged recombinant full length SARS-CoV-2 3CLpro expressed in Escherichia coli BL21(DE3) assessed as Kobs, ratio of Kinact/Ki using MCA-AVLQSGFR-Lys(Dnp)-Lys-NH2 as fluorogenic substrate incubated for 3 hrs by FRET assay
Procathepsin L [6] = target: T3, Procathepsin L; experiment: Inhibition of Cathepsin L (unknown origin) using Z-VVR-AMC as fluorogenic substrate preincubated for 10 mins followed by substrate addition and measured for 10 mins by fluorescence based assay
Target sequence in this assay (P07711 whole entry): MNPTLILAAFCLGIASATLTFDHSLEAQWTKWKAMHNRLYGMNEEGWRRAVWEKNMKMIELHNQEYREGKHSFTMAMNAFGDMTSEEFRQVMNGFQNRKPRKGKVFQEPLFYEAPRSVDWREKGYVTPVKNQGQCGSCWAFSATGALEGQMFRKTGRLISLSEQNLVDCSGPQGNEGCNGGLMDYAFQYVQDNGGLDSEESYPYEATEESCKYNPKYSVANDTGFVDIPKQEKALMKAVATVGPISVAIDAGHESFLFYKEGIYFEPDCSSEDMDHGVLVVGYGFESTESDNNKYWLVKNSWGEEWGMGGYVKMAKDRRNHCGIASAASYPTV

SARS-CoV-2 = experiment: microbe, parasite or virus in culture; details: Severe acute respiratory syndrome coronavirus 2, B1.617.2 (Delta), Vero C1008, 24 h

CCSc1ccc2c(c1)N(C(=O)CSC#N)c1ccccc1S2
IC50 [1]: 2.64 µM

N#CSCC(=O)N1c2ccccc2Sc2ccccc21
IC50 [1]: 1.85 µM

N#CSCC(=O)N1c2ccccc2CCc2ccccc21
IC50 [1]: 2.21 µM | IC50 [2]: > 100 µM | IC50 (Chymotrypsin): > 100 µM | IC50 (Cathepsin B): > 50 µM | IC50 (Cathepsin G): > 50 µM | inhibition (Procathepsin L [3]): 70.3% | IC50 (Caspase-6): > 50 µM | Ki [4]: 43.6 µM | Kobs [5]: 327 M⁻¹ s⁻¹

N#CSCC(=O)N1c2ccccc2Sc2ccc(Cl)cc21
IC50 [1]: 0.524 µM

N#CSCC(=O)N1c2ccccc2Sc2ccc(C#N)cc21
IC50 [1]: 0.322 µM | IC50 [2]: > 100 µM | IC50 (Chymotrypsin): > 100 µM | IC50 (Cathepsin B): > 50 µM | IC50 (Procathepsin L [6]): > 100 µM | IC50 (Cathepsin G): > 50 µM | IC50 (Caspase-6): > 50 µM | Ki [4]: 18.1 µM | Kobs [5]: 1670 M⁻¹ s⁻¹

N#CSCC(=O)N1c2ccccc2Oc2ccccc21
IC50 [1]: 3.96 µM | EC50 (SARS-CoV-2): 5.38 µM

CCC(=O)c1ccc2c(c1)N(C(=O)CSC#N)c1ccccc1S2
IC50 [1]: 3.33 µM

N#CSCC(=O)N1c2ccccc2CCc2ccc(Cl)cc21
IC50 [1]: 0.478 µM | Ki [4]: 24.9 µM | EC50 (SARS-CoV-2): 2.5 µM

N#CSCC(=O)N1c2ccccc2Sc2ccc(C(F)(F)F)cc21
IC50 [1]: 4.6 µM | EC50 (SARS-CoV-2): 3.14 µM

CC(=O)c1ccc2c(c1)N(C(=O)CSC#N)c1ccccc1S2
IC50 [1]: 1.06 µM

COc1ccc2c(c1)N(C(=O)CSC#N)c1ccccc1S2
IC50 [1]: 2.9 µM
